Data reported in patent publication US20240317721A1, “PYRAZOLYL DERIVATIVES AS INHIBITORS OF THE KRAS MUTANT PROTEIN” (NOVARTIS AG, priority 2021, published 2024).

Target: KRasG12C (M1-K169, biotinylated on the N-terminus) (Homo sapiens (Human), UniProt P01116, G12C)
Experiment: Covalent competition assay: scintillation proximity assay (SPA) quantifying covalent modification of KRASG12C
Type: binding
Conditions: competition with radiolabeled covalent probe (Compound B/Compound A), 2 hours incubation, 10 nM KRasG12C
Procedure: Cells were harvested by centrifugation and frozen at −80° C. until further processing. […] The cells were lysed by 4 passages through an Avestin Emulsiflex at about 20000 psi and insoluble debris removed by centrifugation and filtered through a 0.45 µm Durapore membrane (Millipore). […] Eluted protein fractions were analyzed by Novex NuPage 4-12% PAGE. […] The protein in the flow through was subjected to a final polishing step on a HiLoad 16/60 Superdex 200 prep grade size-exclusion column pre-equilibrated with SEC-buffer (20 mM HEPES pH 7.4, 150 mM NaCl, 5 mM MgCl2, 1 µM GDP). Positive fractions were determined by PAGE (Novex NuPage 4-12% BisTris) analysis.
A scintillation proximity assay (SPA) was used to determine the potency of the compounds.
This assay measures the ability of the test compound to compete with the radiolabeled covalent probe for binding to and covalently modify KRASG12C.
(see above for synthesis of Compound A and Compound B). A serial dilution of the compounds to be tested is mixed with a fixed concentration of the radiolabeled covalent probe before incubation with KRASG12C:GDP as described below. KRASG12C can either be bound by the radiolabeled covalent probe (Compound B), resulting in light being emitted from the beads, or bound by covalent test compound preventing signal generation.
A 1/20 isotopic dilution of labeled (Compound B) and non-labeled covalent (Compound A) probe was prepared and added to all wells on the plate. The reaction was started by addition of KRasG12C (M1-K169, biotinylated on the N-terminus) to the compounds and incubated for 2 hours with continuous agitation allowing for full modification of KRasG12C with probe or test compounds. Final concentrations in an assay volume of 40 μL were 10 nM KRasG12C, 25 nM radio-ligand and 475 nM unlabelled ligand. The assay buffer contained 20 mM Tris-HCl pH 7.5 (Invitrogen), 150 mM NaCl (Sigma Aldrich), 0.1 mM MgCl2 (Sigma Aldrich), and 0.01% Tween-20 (Sigma Aldrich). Following addition of 50 μL of a 400 μg/mL suspension of streptavidin-coated YSi beads (Perkin Elmer), plates were incubated for a further 30 min with continuous agitation before reading the plates on a scintillation counter (Topcount NXT 384 (Packard).
Evaluation was carried out using assay data analysis software (such as the standard Novartis in-house Helios software application, Novartis Institutes for BioMedical Research, unpublished) using the methods described in Formenko et al., Robust Regression for high-throughput screening, Computer Methods and Programs in Biomedicine, 2006, 82, 31-37. Following normalization of activity values for the wells to % inhibition (% inhibition=[(high control−sample)/(high control−low control)]×100), IC50 fitting was carried out from the duplicate determinations present on each plate according to Formenko et al., 2006.
Evaluation can also be carried out using commercially available software which is designed to derive IC50 values using 4-parameter fits (e.g. GraphPad Prism, XL fit).

SMILES	IC50 [nM]
C=CC(=O)N1CC2(CC(n3nc(N4CCC(O)CC4(C)C)c(-c4c(Cl)c(C)cc5[nH]ncc45)c3C)C2)C1 (single isomer, unassigned) [Example 30b, 1-(6-(4-(5-chloro-6-methyl-1H-indazol-4-yl)-3-(4-hydroxy-2,2-dimethylpiperidin-1-yl)-5-methyl-1H-pyrazol-1-yl)-2-azaspiro[3.3]heptan-2-yl)prop-2-en-1-one]	2700
C=CC(=O)N1CC2(CC(n3nc(N4CCC(N5CCOCC5)CC4(C)C)c(-c4c(Cl)c(C)cc5[nH]ncc45)c3C)C2)C1 (single isomer, unassigned) [Example 34a, 1-(6-(4-(5-chloro-6-methyl-1H-indazol-4-yl)-3-(2,2-dimethyl-4-morpholinopiperidin-1-yl)-5-methyl-1H-pyrazol-1-yl)-2-azaspiro[3.3]heptan-2-yl)prop-2-en-1-one]	3800
C=CC(=O)N1CC2(CC(n3nc(N4CCC(N5CCOCC5)CC4(C)C)c(-c4c(Cl)c(C)cc5[nH]ncc45)c3C)C2)C1 (single isomer, unassigned) [Example 34b, 1-(6-(4-(5-chloro-6-methyl-1H-indazol-4-yl)-3-(2,2-dimethyl-4-morpholinopiperidin-1-yl)-5-methyl-1H-pyrazol-1-yl)-2-azaspiro[3.3]heptan-2-yl)prop-2-en-1-one]	13
C=CC(=O)N1CC2(CC(n3nc(N4CCC(N5CCOCC5)CC4(C)C)c(-c4c(Cl)c(C)cc5[nH]ncc45)c3C)C2)C1 (single isomer, unassigned) [Example 35a, 1-(6-(4-(5-chloro-6-methyl-1H-indazol-4-yl)-3-(2,2-dimethyl-4-morpholinopiperidin-1-yl)-5-methyl-1H-pyrazol-1-yl)-2-azaspiro[3.3]heptan-2-yl)prop-2-en-1-one]	254
C=CC(=O)N1CC2(CC(n3nc(N4CCC(N5CCOCC5)CC4(C)C)c(-c4c(Cl)c(C)cc5[nH]ncc45)c3C)C2)C1 (single isomer, unassigned) [Example 35b, 1-(6-(4-(5-chloro-6-methyl-1H-indazol-4-yl)-3-(2,2-dimethyl-4-morpholinopiperidin-1-yl)-5-methyl-1H-pyrazol-1-yl)-2-azaspiro[3.3]heptan-2-yl)prop-2-en-1-one]	1500
C=CC(=O)N1CC2(CC(n3nc(N4CCN(C(C)=O)CC4)c(-c4c(Cl)ccc5[nH]ncc45)c3C)C2)C1 (single isomer, unassigned) [Example 36a, 1-(6-(3-(4-acetylpiperazin-1-yl)-4-(5-chloro-1H-indazol-4-yl)-5-methyl-1H-pyrazol-1-yl)-2-azaspiro[3.3]heptan-2-yl)prop-2-en-1-one]	24400
C=CC(=O)N1CC2(CC(n3nc(N4CCN(C(C)=O)CC4)c(-c4c(Cl)ccc5[nH]ncc45)c3C)C2)C1 (single isomer, unassigned) [Example 36b, 1-(6-(3-(4-acetylpiperazin-1-yl)-4-(5-chloro-1H-indazol-4-yl)-5-methyl-1H-pyrazol-1-yl)-2-azaspiro[3.3]heptan-2-yl)prop-2-en-1-one]	2400
C=CC(=O)N1CC2(CC(n3nc(N4CC(c5cccnc5)C4)c(-c4c(Cl)c(C)cc5[nH]ncc45)c3C)C2)C1 (single isomer, unassigned) [Example 37a, 1-(6-(4-(5-chloro-6-methyl-1H-indazol-4-yl)-5-methyl-3-(3-(pyridin-3-yl)azetidin-1-yl)-1H-pyrazol-1-yl)-2-azaspiro[3.3]heptan-2-yl)prop-2-en-1-one]	> 50000
C=CC(=O)N1CC2(CC(n3nc(N4CC(c5cccnc5)C4)c(-c4c(Cl)c(C)cc5[nH]ncc45)c3C)C2)C1 (single isomer, unassigned) [Example 37b, 1-(6-(4-(5-chloro-6-methyl-1H-indazol-4-yl)-5-methyl-3-(3-(pyridin-3-yl)azetidin-1-yl)-1H-pyrazol-1-yl)-2-azaspiro[3.3]heptan-2-yl)prop-2-en-1-one]	2100
C=CC(=O)N1CC2(CC(n3nc(N4CCC5C(CC(=O)N5C)C4)c(-c4c(Cl)c(C)cc5[nH]ncc45)c3C)C2)C1 (single isomer, unassigned) [Example 38a, 5-(1-(2-acryloyl-2-azaspiro[3.3]heptan-6-yl)-4-(5-chloro-6-methyl-1H-indazol-4-yl)-5-methyl-1H-pyrazol-3-yl)-1-methyloctahydro-2H-pyrrolo[3,2-c]pyridin-2-one]	> 5000
C=CC(=O)N1CC2(CC(n3nc(N4CCC5C(CC(=O)N5C)C4)c(-c4c(Cl)c(C)cc5[nH]ncc45)c3C)C2)C1 (single isomer, unassigned) [Example 38b, 5-(1-(2-acryloyl-2-azaspiro[3.3]heptan-6-yl)-4-(5-chloro-6-methyl-1H-indazol-4-yl)-5-methyl-1H-pyrazol-3-yl)-1-methyloctahydro-2H-pyrrolo[3,2-c]pyridin-2-one]	89
C=CC(=O)N1CC2(CC(n3nc(N4CCC5C(CC(=O)N5C)C4)c(-c4c(Cl)c(C)cc5[nH]ncc45)c3C)C2)C1 (single isomer, unassigned) [Example 39a, 5-(1-(2-acryloyl-2-azaspiro[3.3]heptan-6-yl)-4-(5-chloro-6-methyl-1H-indazol-4-yl)-5-methyl-1H-pyrazol-3-yl)-1-methyloctahydro-2H-pyrrolo[3,2-c]pyridin-2-one]	42100
C=CC(=O)N1CC2(CC(n3nc(N4CCC5C(CC(=O)N5C)C4)c(-c4c(Cl)c(C)cc5[nH]ncc45)c3C)C2)C1 (single isomer, unassigned) [Example 39b, 5-(1-(2-acryloyl-2-azaspiro[3.3]heptan-6-yl)-4-(5-chloro-6-methyl-1H-indazol-4-yl)-5-methyl-1H-pyrazol-3-yl)-1-methyloctahydro-2H-pyrrolo[3,2-c]pyridin-2-one]	75
C=CC(=O)N1CC2(CC(n3nc(N4CCc5nn(C)c(=O)cc5C4)c(-c4c(Cl)c(C)cc5[nH]ncc45)c3C)C2)C1 (single isomer, unassigned) [Example 40a, 6-(1-(2-acryloyl-2-azaspiro[3.3]heptan-6-yl)-4-(5-chloro-6-methyl-1H-indazol-4-yl)-5-methyl-1H-pyrazol-3-yl)-2-methyl-5,6,7,8-tetrahydropyrido[4,3-c]pyridazin-3(2H)-one]	> 50000
C=CC(=O)N1CC2(CC(n3nc(N4CCc5nn(C)c(=O)cc5C4)c(-c4c(Cl)c(C)cc5[nH]ncc45)c3C)C2)C1 (single isomer, unassigned) [Example 40b, 6-(1-(2-acryloyl-2-azaspiro[3.3]heptan-6-yl)-4-(5-chloro-6-methyl-1H-indazol-4-yl)-5-methyl-1H-pyrazol-3-yl)-2-methyl-5,6,7,8-tetrahydropyrido[4,3-c]pyridazin-3(2H)-one]	633
C=CC(=O)N1CC2(CC(n3nc(N4CCn5nccc5C4C)c(-c4c(Cl)c(C)cc5[nH]ncc45)c3C)C2)C1 (single isomer, unassigned) [Example 41a, 1-(6-(4-(5-chloro-6-methyl-1H-indazol-4-yl)-5-methyl-3-(4-methyl-6,7-dihydropyrazolo[1,5-a]pyrazin-5(4H)-yl)-1H-pyrazol-1-yl)-2-azaspiro[3.3]heptan-2-yl)prop-2-en-1-one]	41900
C=CC(=O)N1CC2(CC(n3nc(N4CCn5nccc5C4C)c(-c4c(Cl)c(C)cc5[nH]ncc45)c3C)C2)C1 (single isomer, unassigned) [Example 41b, 1-(6-(4-(5-chloro-6-methyl-1H-indazol-4-yl)-5-methyl-3-(4-methyl-6,7-dihydropyrazolo[1,5-a]pyrazin-5(4H)-yl)-1H-pyrazol-1-yl)-2-azaspiro[3.3]heptan-2-yl)prop-2-en-1-one]	149
C=CC(=O)N1CC2(CC(n3nc(N4CCn5nccc5C4C)c(-c4c(Cl)c(C)cc5[nH]ncc45)c3C)C2)C1 (single isomer, unassigned) [Example 42a, 1-(6-(4-(5-chloro-6-methyl-1H-indazol-4-yl)-5-methyl-3-(4-methyl-6,7-dihydropyrazolo[1,5-a]pyrazin-5(4H)-yl)-1H-pyrazol-1-yl)-2-azaspiro[3.3]heptan-2-yl)prop-2-en-1-one]	> 50000
